Test results: ChEMBL document CHEMBL6120980, “Discovery of First Branched-Chain Ketoacid Dehydrogenase Kinase (BDK) Inhibitor Clinical Candidate PF-07328948” (J Med Chem, 2025)
One block for each compound: values may come before it.

Experiments:
[1] = physchem; conditions: octanol/water
[2] = molecular target: Branched-chain alpha-ketoacid dehydrogenase kinase (Homo sapiens) (UniProt O14874); assay: Potency index, ratio of PF-07208254 IC50 to test compound IC50 for inhibition of human BDK using LBD-Tev-PhosphoPep/Lipoyl as substrate preincubated for 15 mins followed by substrate/ATP addition and measured after 90 mins by TR-FRET assay
[3] = molecular target: Branched-chain alpha-ketoacid dehydrogenase kinase (Homo sapiens) (UniProt O14874); assay: Potency index, ratio of PF-07208254 IC50 to test compound IC50 for inhibition of BDK in human skeletal myocyte using BCKDHA as substrate assessed as inhibition of substrate phosphorylation incubated for 60 mins by AlphaLISA surefire ultra assay
[4] = human, hepatocytes, 4 h, 1 µM
[5] = in vitro; conditions: dog, MDCK
[6] = human, hepatocytes, 4 h, 5 µM
[7] = test system: Cytochrome P450; assay: Drug metabolism in human hepatocytes assessed as CYP450-catalyzed o-demethylation mediated 6-fluoro-3-(2,4,5-trifluoro-3-hydroxyphenyl)benzo[b]thiophene-2-carboxylic acid metabolite formation by mass spectrometric analysis; assay type: ADME, cell-based, Hepatocyte
[8] = molecular target: ATP-dependent translocase ABCB1 (Homo sapiens, UniProt P08183); assay: Inhibition of human MDR1 expressed in HEK293 cell vesicles using N-methylquinidine as substrate preincubated for 30 mins followed by substrate addition and measured after 1 to 4 mins; assay type: subcellular, Vesicle
[9] = molecular target: Cytochrome P450 2D6 (Homo sapiens, UniProt P10635); assay: Reversible inhibition of human CYP2D6-mediated dextromethorphan-O-demethylation in human liver microsomes using dextromethorphan as substrate in presence of NADPH; assay type: ADME, Microsome
[10] = molecular target: Solute carrier organic anion transporter family member 1B3 (Homo sapiens, UniProt Q9NPD5); assay: Inhibition of human OATP1B3 expressed in HEK293 cells using rosuvastatin as substrate preincubated for 30 mins followed by substrate addition and measured after 1 to 4 mins; assay type: cell-based
Sequence of Solute carrier organic anion transporter family member 1B3 (Q9NPD5 whole entry): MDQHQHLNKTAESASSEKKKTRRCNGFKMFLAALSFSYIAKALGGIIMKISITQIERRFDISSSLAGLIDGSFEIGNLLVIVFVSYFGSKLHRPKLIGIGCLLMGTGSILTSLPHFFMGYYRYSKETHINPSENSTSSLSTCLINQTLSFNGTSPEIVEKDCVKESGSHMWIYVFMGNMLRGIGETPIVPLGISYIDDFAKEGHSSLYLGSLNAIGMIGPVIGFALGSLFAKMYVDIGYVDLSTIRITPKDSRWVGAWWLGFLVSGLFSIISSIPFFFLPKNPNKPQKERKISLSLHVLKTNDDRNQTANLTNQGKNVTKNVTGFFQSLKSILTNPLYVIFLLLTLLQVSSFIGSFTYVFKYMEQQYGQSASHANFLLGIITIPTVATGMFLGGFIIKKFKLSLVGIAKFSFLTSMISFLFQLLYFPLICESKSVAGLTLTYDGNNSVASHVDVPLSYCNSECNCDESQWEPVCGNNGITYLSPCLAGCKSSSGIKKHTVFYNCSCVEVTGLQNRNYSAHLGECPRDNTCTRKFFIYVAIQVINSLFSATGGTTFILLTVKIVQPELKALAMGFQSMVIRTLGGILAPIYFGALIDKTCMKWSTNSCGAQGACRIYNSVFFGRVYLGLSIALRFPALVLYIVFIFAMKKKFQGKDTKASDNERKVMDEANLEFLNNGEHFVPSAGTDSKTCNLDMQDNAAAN

[11] = molecular target: Cytochrome P450 2B6 (Homo sapiens, UniProt P20813); assay: Reversible inhibition of human CYP2B6-mediated bupropion hydroxylation in human liver microsomes using bupropion as substrate in presence of NADPH; assay type: ADME, Microsome
Sequence of Cytochrome P450 2B6 (P20813 whole entry): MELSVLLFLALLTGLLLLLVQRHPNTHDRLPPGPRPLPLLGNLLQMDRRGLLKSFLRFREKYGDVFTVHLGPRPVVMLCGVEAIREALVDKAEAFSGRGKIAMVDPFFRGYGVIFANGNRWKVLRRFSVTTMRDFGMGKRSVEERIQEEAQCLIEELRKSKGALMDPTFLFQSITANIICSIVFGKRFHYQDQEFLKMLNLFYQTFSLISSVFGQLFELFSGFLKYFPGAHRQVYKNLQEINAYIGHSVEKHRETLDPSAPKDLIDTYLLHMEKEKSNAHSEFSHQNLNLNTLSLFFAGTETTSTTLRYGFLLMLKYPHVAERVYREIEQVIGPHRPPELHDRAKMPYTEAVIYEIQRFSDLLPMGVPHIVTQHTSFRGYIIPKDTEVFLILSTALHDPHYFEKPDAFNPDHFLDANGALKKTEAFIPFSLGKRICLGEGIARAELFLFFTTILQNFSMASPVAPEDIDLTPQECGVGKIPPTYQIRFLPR

[12] = molecular target: Cytochrome P450 2C9 (Homo sapiens, UniProt P11712); assay: Reversible inhibition of human CYP2C9-mediated diclofenac-4'-hydroxylation in human liver microsomes using diclofenac as substrate in presence of NADPH; assay type: ADME, Microsome
[13] = molecular target: Organic anion transporter 3 (Homo sapiens, UniProt Q8TCC7); assay: Inhibition of human OAT3 expressed in HEK293 cells using estrone-3-sulfate as substrate preincubated for 30 mins followed by substrate addition and measured after 1 to 4 mins; assay type: cell-based
[14] = molecular target: Cytochrome P450 2C19 (Homo sapiens, UniProt P33261); assay: Reversible inhibition of human CYP2C19-mediated S-mephenytoin-4'-hydroxylation in human liver microsomes using S-mephenytoin as substrate in presence of NADPH; assay type: ADME, Microsome
Sequence of Cytochrome P450 2C19 (P33261 whole entry): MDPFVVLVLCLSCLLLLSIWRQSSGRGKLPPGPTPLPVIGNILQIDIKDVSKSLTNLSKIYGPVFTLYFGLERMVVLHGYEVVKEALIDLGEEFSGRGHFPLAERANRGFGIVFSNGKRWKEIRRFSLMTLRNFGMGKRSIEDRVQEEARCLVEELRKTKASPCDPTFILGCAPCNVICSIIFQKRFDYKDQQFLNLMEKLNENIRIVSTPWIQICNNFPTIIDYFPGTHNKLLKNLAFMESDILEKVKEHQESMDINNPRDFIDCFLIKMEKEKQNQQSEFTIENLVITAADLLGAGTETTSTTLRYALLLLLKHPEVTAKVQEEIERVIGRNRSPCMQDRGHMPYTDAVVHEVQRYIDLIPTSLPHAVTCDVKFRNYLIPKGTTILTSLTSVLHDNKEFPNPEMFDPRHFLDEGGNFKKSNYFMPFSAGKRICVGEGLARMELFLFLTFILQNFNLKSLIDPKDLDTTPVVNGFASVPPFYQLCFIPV

[15] = molecular target: Multidrug and toxin extrusion protein 2 (Homo sapiens, UniProt Q86VL8); assay: Inhibition of human MATE2K expressed in HEK293 cells using [14C]metformin as substrate preincubated for 30 mins followed by substrate addition and measured after 1 to 4 mins; assay type: cell-based
[16] = molecular target: Multidrug and toxin extrusion protein 1 (Homo sapiens, UniProt Q96FL8); assay: Inhibition of human MATE1 expressed in HEK293 cells using [14C]metformin as substrate preincubated for 30 mins followed by substrate addition and measured after 1 to 4 mins; assay type: cell-based
Sequence of Multidrug and toxin extrusion protein 1 (Q96FL8 whole entry): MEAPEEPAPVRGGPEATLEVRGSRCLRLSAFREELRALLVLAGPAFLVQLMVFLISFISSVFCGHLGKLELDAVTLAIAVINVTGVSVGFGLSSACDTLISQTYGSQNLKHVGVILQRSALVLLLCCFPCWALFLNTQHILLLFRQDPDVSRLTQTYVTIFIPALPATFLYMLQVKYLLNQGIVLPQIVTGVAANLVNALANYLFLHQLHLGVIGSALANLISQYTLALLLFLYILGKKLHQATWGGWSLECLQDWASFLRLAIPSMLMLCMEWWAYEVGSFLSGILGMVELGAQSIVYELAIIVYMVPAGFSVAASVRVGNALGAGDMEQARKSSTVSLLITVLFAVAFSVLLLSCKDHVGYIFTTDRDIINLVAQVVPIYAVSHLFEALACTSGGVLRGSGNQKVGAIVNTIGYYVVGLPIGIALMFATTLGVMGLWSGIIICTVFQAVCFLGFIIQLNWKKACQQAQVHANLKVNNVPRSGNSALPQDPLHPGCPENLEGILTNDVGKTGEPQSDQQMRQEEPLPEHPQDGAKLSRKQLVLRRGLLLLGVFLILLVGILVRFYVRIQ

[17] = molecular target: Cytochrome P450 3A5 (Homo sapiens, UniProt P20815); assay: Reversible inhibition of human CYP3A5-mediated nifedipine oxidation in human liver microsomes using nifedipine as substrate in presence of NADPH; assay type: ADME, Microsome
[18] = molecular target: Branched-chain alpha-ketoacid dehydrogenase kinase (Mus musculus, UniProt O55028); assay: Inhibition of mouse BDK using LBD-Tev-PhosphoPep/Lipoyl as substrate preincubated for 15 mins followed by substrate/ATP addition and measured after 90 mins by TR-FRET assay
[19] = molecular target: Solute carrier family 22 member 1 (Homo sapiens, UniProt O15245); assay: Inhibition of human OCT1 expressed in HEK293 cells using [14C]metformin as substrate preincubated for 30 mins followed by substrate addition and measured after 1 to 4 mins; assay type: cell-based
[20] = molecular target: T1, Cytochrome P450 3A4 (Homo sapiens, UniProt P08684); assay: Reversible inhibition of human CYP3A4-mediated testosterone-6beta-hydroxylation in human liver microsomes using testosterone as substrate in presence of NADPH; assay type: ADME, Microsome
T1 sequence (P08684 whole entry): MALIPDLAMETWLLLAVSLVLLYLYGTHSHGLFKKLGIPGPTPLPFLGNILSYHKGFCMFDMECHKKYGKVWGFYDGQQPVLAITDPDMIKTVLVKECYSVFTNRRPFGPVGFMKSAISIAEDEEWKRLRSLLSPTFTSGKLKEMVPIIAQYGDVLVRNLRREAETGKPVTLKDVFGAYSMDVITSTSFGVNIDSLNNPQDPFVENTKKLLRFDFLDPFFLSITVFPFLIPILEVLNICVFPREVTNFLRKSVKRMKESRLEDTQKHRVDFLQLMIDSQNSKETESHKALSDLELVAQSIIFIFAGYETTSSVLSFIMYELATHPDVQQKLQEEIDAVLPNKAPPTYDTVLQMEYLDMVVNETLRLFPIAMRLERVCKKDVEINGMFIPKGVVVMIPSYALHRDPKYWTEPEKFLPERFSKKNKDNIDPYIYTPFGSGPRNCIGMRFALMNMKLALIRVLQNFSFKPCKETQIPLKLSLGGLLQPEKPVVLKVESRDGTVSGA

[21] = molecular target: Solute carrier family 22 member 2 (Homo sapiens, UniProt O15244); assay: Inhibition of human OCT2 expressed in HEK293 cells using [14C]metformin as substrate preincubated for 30 mins followed by substrate addition and measured after 1 to 4 mins; assay type: cell-based
[22] = molecular target: T1, Cytochrome P450 3A4; assay: Reversible inhibition of human CYP3A4-mediated midazolam-1'-hydroxylation in human liver microsomes using midazolam as substrate in presence of NADPH; assay type: ADME, Microsome
[23] = molecular target: Cytochrome P450 2C8 (Homo sapiens, UniProt P10632); assay: Reversible inhibition of human CYP2C8-mediated amodiaquine N-dealkylation in human liver microsomes using amodiaquine as substrate in presence of NADPH; assay type: ADME, Microsome
Sequence of Cytochrome P450 2C8 (P10632 whole entry): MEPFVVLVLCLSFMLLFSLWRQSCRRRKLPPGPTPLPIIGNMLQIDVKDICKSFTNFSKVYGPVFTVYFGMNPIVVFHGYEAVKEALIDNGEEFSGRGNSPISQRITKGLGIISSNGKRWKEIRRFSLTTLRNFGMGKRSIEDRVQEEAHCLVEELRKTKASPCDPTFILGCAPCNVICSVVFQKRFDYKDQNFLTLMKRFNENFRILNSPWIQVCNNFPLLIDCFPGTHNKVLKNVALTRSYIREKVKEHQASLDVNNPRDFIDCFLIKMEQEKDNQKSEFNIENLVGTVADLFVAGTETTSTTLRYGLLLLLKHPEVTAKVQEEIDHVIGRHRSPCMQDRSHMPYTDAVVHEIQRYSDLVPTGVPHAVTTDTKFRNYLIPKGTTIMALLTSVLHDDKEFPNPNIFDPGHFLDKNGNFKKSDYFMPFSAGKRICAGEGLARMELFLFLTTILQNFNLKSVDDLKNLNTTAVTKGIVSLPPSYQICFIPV

[24] = molecular target: Solute carrier family 22 member 6 (Homo sapiens, UniProt Q4U2R8); assay: Inhibition of human OAT1 expressed in HEK293 cells using p-aminohippuric acid as substrate preincubated for 30 mins followed by substrate addition and measured after 1 to 4 mins; assay type: cell-based
[25] = molecular target: UDP-glucuronosyltransferase 1A9 (Homo sapiens, UniProt O60656); assay: Drug metabolism assessed as recombinant human UGT1A9-mediated (2S,3S,4S,5R)-6-((6-fluoro-3-(2,4,5-trifluoro-3-methoxyphenyl)benzo[b]thiophene-2-carbonyl)oxy)-3,4,5-trihydroxytetrahydro-2H-pyran-2-carboxylic acid metabolite formation at 1 uM; assay type: ADME; conditions: recombinant enzyme
[26] = molecular target: Solute carrier organic anion transporter family member 1B1 (Homo sapiens, UniProt Q9Y6L6); assay: Inhibition of human OATP1B1 expressed in HEK293 cells using rosuvastatin as substrate preincubated for 30 mins followed by substrate addition and measured after 1 to 4 mins; assay type: cell-based
[27] = molecular target: UDP-glucuronosyltransferase 2B15 (Homo sapiens, UniProt P54855); assay: Drug metabolism assessed as recombinant human UGT2B15-mediated (2S,3S,4S,5R)-6-((6-fluoro-3-(2,4,5-trifluoro-3-methoxyphenyl)benzo[b]thiophene-2-carbonyl)oxy)-3,4,5-trihydroxytetrahydro-2H-pyran-2-carboxylic acid metabolite formation at 1 uM; assay type: ADME; conditions: recombinant enzyme
Sequence of UDP-glucuronosyltransferase 2B15 (P54855 whole entry): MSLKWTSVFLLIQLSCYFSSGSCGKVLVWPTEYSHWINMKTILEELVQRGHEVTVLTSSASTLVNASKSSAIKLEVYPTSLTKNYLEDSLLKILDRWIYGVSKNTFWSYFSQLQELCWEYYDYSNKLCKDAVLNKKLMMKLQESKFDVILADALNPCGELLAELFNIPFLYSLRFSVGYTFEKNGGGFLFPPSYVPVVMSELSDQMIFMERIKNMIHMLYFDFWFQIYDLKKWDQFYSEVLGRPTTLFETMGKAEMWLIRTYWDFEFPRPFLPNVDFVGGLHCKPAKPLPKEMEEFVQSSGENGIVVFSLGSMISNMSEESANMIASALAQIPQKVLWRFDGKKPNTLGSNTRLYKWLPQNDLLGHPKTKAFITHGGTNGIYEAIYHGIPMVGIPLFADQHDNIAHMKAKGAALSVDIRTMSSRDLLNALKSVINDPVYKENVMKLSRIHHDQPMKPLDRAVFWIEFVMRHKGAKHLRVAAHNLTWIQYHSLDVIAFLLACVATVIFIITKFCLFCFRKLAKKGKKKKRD

[28] = molecular target: UDP-glucuronosyltransferase 2B4 (Homo sapiens, UniProt P06133); assay: Drug metabolism assessed as recombinant human UGT2B4-mediated (2S,3S,4S,5R)-6-((6-fluoro-3-(2,4,5-trifluoro-3-methoxyphenyl)benzo[b]thiophene-2-carbonyl)oxy)-3,4,5-trihydroxytetrahydro-2H-pyran-2-carboxylic acid metabolite formation at 1 uM; assay type: ADME; conditions: recombinant enzyme
Sequence of UDP-glucuronosyltransferase 2B4 (P06133 whole entry): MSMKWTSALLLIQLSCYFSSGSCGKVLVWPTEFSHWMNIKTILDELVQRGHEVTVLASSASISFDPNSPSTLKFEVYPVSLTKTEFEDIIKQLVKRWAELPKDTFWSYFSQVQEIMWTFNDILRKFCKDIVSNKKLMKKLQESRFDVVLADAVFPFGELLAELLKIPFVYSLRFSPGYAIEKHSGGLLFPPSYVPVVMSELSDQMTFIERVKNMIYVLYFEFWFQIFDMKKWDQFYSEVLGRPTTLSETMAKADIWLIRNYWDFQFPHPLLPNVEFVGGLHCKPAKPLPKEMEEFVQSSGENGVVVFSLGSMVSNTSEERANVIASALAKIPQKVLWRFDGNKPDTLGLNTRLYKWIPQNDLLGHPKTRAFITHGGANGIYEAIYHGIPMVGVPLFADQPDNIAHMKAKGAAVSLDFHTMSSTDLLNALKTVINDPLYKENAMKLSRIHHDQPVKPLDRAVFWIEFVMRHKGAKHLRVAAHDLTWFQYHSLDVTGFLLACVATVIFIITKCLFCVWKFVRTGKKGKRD

[29] = molecular target: Cytochrome P450 1A2 (Homo sapiens, UniProt P05177); assay: Reversible inhibition of human CYP1A2-mediated phenacetin-O-dealkylation in human liver microsomes using phenacetin as substrate in presence of NADPH; assay type: ADME, Microsome
Sequence of Cytochrome P450 1A2 (P05177 whole entry): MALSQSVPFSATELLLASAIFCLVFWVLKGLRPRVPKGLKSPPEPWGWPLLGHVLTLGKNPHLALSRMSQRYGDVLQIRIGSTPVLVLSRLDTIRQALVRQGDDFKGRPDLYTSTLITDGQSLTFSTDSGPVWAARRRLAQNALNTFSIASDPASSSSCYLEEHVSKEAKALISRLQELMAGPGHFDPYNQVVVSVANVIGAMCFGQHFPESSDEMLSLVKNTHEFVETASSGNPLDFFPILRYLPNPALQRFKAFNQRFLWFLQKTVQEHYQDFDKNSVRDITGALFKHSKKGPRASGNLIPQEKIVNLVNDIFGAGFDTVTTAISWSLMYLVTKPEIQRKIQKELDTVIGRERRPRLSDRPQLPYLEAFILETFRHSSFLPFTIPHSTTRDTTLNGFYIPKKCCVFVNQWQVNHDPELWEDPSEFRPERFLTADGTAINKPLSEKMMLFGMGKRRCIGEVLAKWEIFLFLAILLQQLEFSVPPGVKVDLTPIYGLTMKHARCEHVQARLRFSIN

[30] = molecular target: UDP-glucuronosyltransferase 1A3 (Homo sapiens, UniProt P35503); assay: Drug metabolism assessed as recombinant human UGT1A3-mediated (2S,3S,4S,5R)-6-((6-fluoro-3-(2,4,5-trifluoro-3-methoxyphenyl)benzo[b]thiophene-2-carbonyl)oxy)-3,4,5-trihydroxytetrahydro-2H-pyran-2-carboxylic acid metabolite formation at 1 uM; assay type: ADME; conditions: recombinant enzyme
[31] = molecular target: UDP-glucuronosyltransferase 1A1 (Homo sapiens, UniProt P22309); assay: Drug metabolism assessed as recombinant human UGT1A1-mediated (2S,3S,4S,5R)-6-((6-fluoro-3-(2,4,5-trifluoro-3-methoxyphenyl)benzo[b]thiophene-2-carbonyl)oxy)-3,4,5-trihydroxytetrahydro-2H-pyran-2-carboxylic acid metabolite formation at 1 uM; assay type: ADME; conditions: recombinant enzyme
[32] = Retention time of compound in phosphate buffer at pH 7.4 measured after approximately 150 mins by HPLC-UV analysis; assay type: physicochemical
[33] = Drug degradation in phosphate/D2O buffer at pH 7.6 assessed as half-life by H1-NMR analysis; assay type: ADME

logD [1]: 1
Ratio IC50 [2]: 7
Ratio IC50 [3]: 36
CLH(app) [4]: 21 µL/min
Papp A→B [5]: 20 ×10⁻⁶ cm/s
Compound: COc1c(F)cc(F)c(-c2c(C(=O)O)sc3cc(F)ccc23)c1F

logD [1]: 0.5
CLH(app) [4]: < 2 µL/min
Papp A→B [5]: 30 ×10⁻⁶ cm/s
Compound: O=C(O)c1sc2cc(F)ccc2c1Cl

logD [1]: 1.1
CLH(app) [4]: 26 µL/min
Papp A→B [5]: 26 ×10⁻⁶ cm/s
Compound: COc1c(F)ccc(-c2c(C(=O)O)sc3cc(F)ccc23)c1F

logD [1]: 1.1
CLH(app) [4]: 31 µL/min
Compound: O=C(O)c1sc2cc(F)ccc2c1-c1ccccc1

logD [1]: 1.4
CLH(app) [4]: 32 µL/min
Papp A→B [5]: 8.5 ×10⁻⁶ cm/s
Compound: COc1cccc(-c2c(C(=O)O)sc3cc(F)ccc23)c1

logD [1]: 0.1
PB [6]: 103 pmol
CLH(app) [4]: < 2.7 µL/min
Papp A→B [5]: 14 ×10⁻⁶ cm/s
Compound: O=C(O)c1sc2cc(F)sc2c1Cl

Drug metabolism [7]: metabolite_detected
IC50 [8]: > 80 µM
IC50 [9]: > 100 µM
IC50 [10]: > 80 µM
IC50 [11]: 6.7 µM
IC50 [12]: 1000 nM
IC50 [13]: 670 nM
IC50 [14]: > 100 µM
IC50 [17]: > 100 µM
IC50 [18]: 41 nM
IC50 [19]: > 80 µM
IC50 [20]: > 100 µM
IC50 [21]: > 80 µM
IC50 [22]: > 100 µM
IC50 [23]: 23.6 µM
IC50 [24]: 3.3 µM
Drug metabolism [25]: metabolite_detected
IC50 [26]: 4.5 µM
Drug metabolism [27]: metabolite_detected
Drug metabolism [28]: metabolite_detected
IC50 [29]: 1100 nM
Drug metabolism [30]: metabolite_detected
Drug metabolism [31]: metabolite_detected
Compound: COc1c(F)c(F)cc(-c2c(C(=O)O)sc3cc(F)ccc23)c1F
IC50 [15]: > 80 µM
IC50 [16]: > 80 µM

logD [1]: 1.3
CLH(app) [4]: 23 µL/min
Papp A→B [5]: 10 ×10⁻⁶ cm/s
Compound: O=C(O)c1sc2cc(F)ccc2c1-c1cc(F)c(F)cc1F

Compound: O=C(O)c1sc2cc(Cl)ccc2c1Cl
logD [1]: 0.7
CLH(app) [4]: 5.2 µL/min
Papp A→B [5]: 31 ×10⁻⁶ cm/s

logD [1]: 1.6
Papp A→B [5]: 11 ×10⁻⁶ cm/s
Compound: Cc1c(F)c(F)cc(-c2c(C(=O)O)sc3cc(F)ccc23)c1F

Retention_time [32]: 17.6 min
half-life [33]: ~82 min
Compound: COc1c(F)c(F)cc(-c2c(C(=O)OC3O[C@H](C(=O)O)[C@@H](O)[C@H](O)[C@H]3O)sc3cc(F)ccc23)c1F (some centres undefined)

logD [1]: 1
CLH(app) [4]: 23 µL/min
Papp A→B [5]: 28 ×10⁻⁶ cm/s
Compound: COc1cccc(-c2c(C(=O)O)sc3cc(F)ccc23)c1F

logD [1]: 1.5
CLH(app) [4]: 43 µL/min
Papp A→B [5]: 16 ×10⁻⁶ cm/s
Compound: CCOc1c(F)ccc(-c2c(C(=O)O)sc3cc(F)ccc23)c1F

logD [1]: 2.2
CLH(app) [4]: 52 µL/min
Papp A→B [5]: 11 ×10⁻⁶ cm/s
Compound: CCc1c(F)c(F)cc(-c2c(C(=O)O)sc3cc(F)ccc23)c1F
